Laboratory results reported in patent US20080274208A1, “Water treatment containing DBNPA for use in sanitizing recreational water” (priority 2007, published 2008).

Tests used:
[1] = test system: eight species of bacteria and four species of fungi typically found in swimming pool water; assay: Model swimming pool recirculating sand filter system: water clarity (turbidity) under daily microbial challenge; assay type: cell-based; details: Table 1; synthetic pool water 80-90° F, daily inoculation and bather load; DBNPA 2 ppm daily; H2O2 27.5 ppm start, 7 ppm weekly; potassium monopersulfate 12 ppm initial and weekly; PHMB 6 ppm; 88 day test
Method: The purpose of this experiment is to evaluate the robustness or the ability of single or combinations of biocides (plus additionally any other permutations of oxidizers and/or adjuvants) to prevent inoculated microorganisms from establishing colonies in the water and sand filter media, thus preventing bio-fouling of the system.
800 ml of synthetic swimming pool water (water containing calcium chloride dihydrate and sodium hydrogen carbonate solution at neutral pH) was pumped through a body of swimming pool filter sand by means of a peristaltic pump. The water temperature of each system was maintained in the range of 80-90° F. The biocide 2,2-dibromo-3-nitrilopropionamide (DBNPA) was added daily at a concentration of 2 ppm. When required, oxidizer hydrogen peroxide was added at a concentration of 27.5 ppm at the start of experiment, and 7 ppm weekly thereafter, and the loss of hydrogen peroxide in each system is monitored by calorimetric assay. […]
Model water turbidity was measured on a daily basis) using a Hach 2100P turbidimeter to measure water sample nephelometric turbidity units (NTUs). […]
The performance of the candidate treatment regimens was determined by the number of days the water clarity was maintained below 1.0 NTU (Nephelometric Turbidity Units). […]

[2] = test system: eight species of bacteria typically found in swimming pool water; assay: Model swimming pool system: viable bacteria by agar plate counts (CLED agar); assay type: cell-based, Alcaligenes, Chryseobacterium and Sphingomonas; details: Table 1; upon exceeding turbidity threshold (or at test end); DBNPA 2 ppm daily with/without oxidizer; PHMB 6 ppm
Method: (§1) The synthetic swimming pool water samples dosed with combinations of DBNPA, hydrogen peroxide, potassium monopersulfate and/or DDAC were compared to the performance of the commercially available Baquacil® swimming pool chemical treatment system (available commercially from Arch Chemicals, Inc., Norwalk, Conn.). […] PHMB), by addition of daily or weekly doses of the biocide. Hydrogen peroxide is added monthly at a concentration of 27.5 ppm. The samples were challenged on a daily basis with eight species of bacteria and four species of fungi typically found in swimming pool water. These microorganisms include species of the fungi Paecilomyces and Trichoderma, and species of the bacteria Alcaligenes, Chryseobacterium and Sphingomonas. Each inoculation represents a total addition of 0.8×10^6 microorganisms per model apparatus. In addition, 5 ml of synthetic bather load is added to the system on a daily basis, as a nutrient source for the microorganisms present in the system. The bather load consists of carbon, nitrogen and macro/micro nutrient sources such as urea, albumin, creatinine, lactic acid, uric acid, glucuronic acid, sodium chloride, sodium sulfate, ammonium chloride, sodium bicarbonate, potassium phosphate potassium sulfate. The total number of viable bacteria and fungi present in each sample was determined weekly by conducting agar plate counts. […]

[3] = test system: four species of fungi typically found in swimming pool water; assay: Model swimming pool system: viable fungi by agar plate counts (Sabaroud-Dextrose agar); assay type: cell-based, Paecilomyces and Trichoderma; details: Table 1; upon exceeding turbidity threshold (or at test end); DBNPA 2 ppm daily with/without oxidizer; PHMB 6 ppm
Method: as §1

For `N#CC(Br)(Br)C(N)=O` [DBNPA, 2,2-dibromo-3-nitrilopropionamide], the “Number of Days of Clarity below 1.0 NTU” value [1] was 59 days, the “Bacterial Counts at Clarity of 1.0 NTU or above” value [2] was 1.39 × 10^5 CFU/ml and the “Fungal Counts at Clarity of 1.0 NTU or above” value [3] was 5 × 10^0 CFU/ml.
